Read-outs that look alike come from different tables or passages of the source.
Target: T1, BRD9 (Homo sapiens, UniProt Q9H8M2)
T1 sequence (Q9H8M2 1-597): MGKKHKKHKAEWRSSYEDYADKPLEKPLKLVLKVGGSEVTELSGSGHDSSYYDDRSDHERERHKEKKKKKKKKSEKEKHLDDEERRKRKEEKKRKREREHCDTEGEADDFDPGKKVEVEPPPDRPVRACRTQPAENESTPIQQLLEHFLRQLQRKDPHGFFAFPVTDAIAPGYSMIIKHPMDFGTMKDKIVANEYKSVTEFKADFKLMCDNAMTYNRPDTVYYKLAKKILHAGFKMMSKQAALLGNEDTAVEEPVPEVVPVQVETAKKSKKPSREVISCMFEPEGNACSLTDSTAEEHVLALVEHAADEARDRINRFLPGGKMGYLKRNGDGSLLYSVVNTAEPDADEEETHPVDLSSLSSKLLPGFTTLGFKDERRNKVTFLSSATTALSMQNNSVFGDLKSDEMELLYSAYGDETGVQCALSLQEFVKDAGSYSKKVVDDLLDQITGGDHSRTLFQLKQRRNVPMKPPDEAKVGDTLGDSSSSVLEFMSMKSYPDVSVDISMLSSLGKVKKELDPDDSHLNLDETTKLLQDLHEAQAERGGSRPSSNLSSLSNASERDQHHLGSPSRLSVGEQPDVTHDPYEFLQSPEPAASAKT
Test: Degradation of BRD9 (IF), immunofluorescence in MV4-11 cells, 24 hours (Assay Protocol 2)
Assay type: cell-based
Parameters: A suspension of MV4-11 cells (ATCC CRL-9591) was prepared; host or cells: MV4-11
Settings: BRD9 degradation
Summary of the method: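 MV4-11 cells treated with compound 24 h at 37° C., then fixed, permeabilised and immunostained for BRD9 (anti-BRD9 E4Q3F, Alexa 647 secondary, Hoechst counterstain). High-content imaging quantified nuclear BRD9 signal; % BRD9 remaining normalised to DMSO and 100 nM CFT-8634 controls.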

[1] = Assay protocol 2, read-out: DC50
[2] = MV4-11, Assay protocol 2, read-out: Dmax

DC50 [1] [nM]	Dmax [2] [%]	Dmax (MV4-11, Table 4, determined according to Assay Protocol 2, read-out: Dmax^2) [%]	DC50 (Table 4, determined according to Assay Protocol 2, read-out: DC50^2) [nM]	Structure (SMILES)
1.25 to 10	70 to 75			COc1cc(-c2cn(C)c(=O)c(C)c2C)cc(OC)c1CN1CCN(Cc2cccc3c2CCN(C(=O)/C(C#N)=C/c2cccc(Br)n2)C3C)C2(CC2)C1 (mixture of isomers) [Compound C29]
< 1.25	> 75			COc1cc(-c2cn(C)c(=O)c(C)c2C)cc(OC)c1CN1CCN(Cc2cccc3c2CCN(C(=O)/C(C#N)=C/C(C)(C)C)C3C(F)F)C2(CC2)C1 (mixture of isomers) [Compound C13]
25 to 1000	40 to 70			COc1cc(-c2cn(C)c(=O)c(C)c2C)cc(OC)c1CN1CCN(Cc2ccc3c(c2)[C@@H](C)N(C(=O)/C(C#N)=C/C(C)(C)CF)CC3)CC12CC2 (single isomer, unassigned) [Compound C34]
1.25 to 10	70 to 75			COc1cc(-c2cn(C)c(=O)c(C)c2C)cc(OC)c1CN1CCN(Cc2cccc3c2CCN(C(=O)/C(C#N)=C/C(C)(C)CF)C3C(C)C)C2(CC2)C1 (single isomer, unassigned) [Compound C76, (E/Z)-2-(5-((7-(2,6-dimethoxy-4-(1,4,5-trimethyl-6-oxo-1,6-dihydropyridin-3-yl)benzyl)-4,7-diazaspiro[2.5]octan-4-yl)methyl)-1-isopropyl-1,2,3,4-tetrahydroisoquinoline-2-carbonyl)-5-fluoro-4,4-dimethylpent-2-enenitrile]
10 to 25	70 to 75			COc1cc(-c2cn(C)c(=O)c(C)c2C)cc(OC)c1CN1CCN(Cc2ccc3c(c2)[C@@H](C(C)C)N(C(=O)/C(C#N)=C/C(C)(C)CF)CC3)C2(CC2)C1 (single isomer, unassigned) [Compound C97, (E/Z)-2-(7-((7-(2,6-dimethoxy-4-(1,4,5-trimethyl-6-oxo-1,6-dihydropyridin-3-yl)benzyl)-4,7-diazaspiro[2.5]octan-4-yl)methyl)-1-isopropyl-1,2,3,4-tetrahydroisoquinoline-2-carbonyl)-5-fluoro 4,4-dimethylpent-2-enenitrile]
< 1.25	> 75			COc1cc(-c2cn(C)c(=O)c(C)c2C)cc(OC)c1CN1CCN(Cc2ccc3c(c2)C(C)N(C(=O)/C(C#N)=C/C(C)(C)C)CC3)C2(CC2)C1 (mixture of isomers) [Compound C106, (E/Z)-2-(7-((7-(2,6-dimethoxy-4-(1,4,5-trimethyl-6-oxo-1,6-dihydropyridin-3-yl)benzyl)-4,7-diazaspiro[2.5]octan-4-yl)methyl)-1-methyl-1,2,3,4-tetrahydroisoquinoline-2-carbonyl)-4,4-dimethylpent-2-enenitrile]
25 to 1000	70 to 75			COc1cc(-c2cn(C)c(=O)c(C)c2C)ccc1OC1CCC(Cc2cccc3c2CCN(C(=O)/C(C#N)=C/C(C)(C)N2CCN(C)CC2)C3C)CC1 (stereo not drawn) [Compound C50]
< 1.25	> 75			COc1cc(-c2cn(C)c(=O)c(C)c2C)cc(OC)c1CN1CCN(Cc2ccc3c(c2)[C@@H](C)N(C(=O)/C(C#N)=C/C(C)(C)C)CC3)C2(CC2)C1 (single isomer, unassigned) [Compound C35, (E/Z)-2-(7-((7-(2,6-dimethoxy-4-(1,4,5-trimethyl-6-oxo-1,6-dihydropyridin-3-yl)benzyl)-4,7-diazaspiro[2.5]octan-4-yl)methyl)-1-methyl-1,2,3,4-tetrahydroisoquinoline-2-carbonyl)-4,4-dimethylpent-2-enenitrile]
> 1000	40 to 70			CC[C@H]1c2cccc(CN3CCN(Cc4c(OC)cc(-c5cn(C)c(=O)c(C)c5C)cc4OC)C4(CC4)C3)c2CCN1C(=O)/C(C#N)=C/C(C)(C)C (single isomer, unassigned) [Compound C90, (E/Z)-2-(5-((4-(2,6-dimethoxy-4-(1,4,5-trimethyl-6-oxo-1,6-dihydropyridin-3-yl)benzyl)-4,7-diazaspiro[2.5]octan-7-yl)methyl)-1-ethyl-1,2,3,4-tetrahydroisoquinoline-2-carbonyl)-4,4-dimethylpent-2-enenitrile]

Further lines, the compound ahead of its results:

Structure (SMILES)	DC50 [1] [nM]	Dmax [2] [%]	Dmax (MV4-11, Table 4, determined according to Assay Protocol 2, read-out: Dmax^2) [%]	DC50 (Table 4, determined according to Assay Protocol 2, read-out: DC50^2) [nM]
COc1cc(-c2cn(C)c(=O)c(C)c2C)cc(OC)c1CN1CCN(Cc2cccc3c2CCN(C(=O)/C(C#N)=C/C2(C)CCC2)C3C)C2(CC2)C1 (mixture of isomers) [Compound B149, (E/Z)-2-(5-((7-(2,6-dimethoxy-4-(1,4,5-trimethyl-6-oxo-1,6-dihydropyridin-3-yl)benzyl)-4,7-diazaspiro[2.5]octan-4-yl)methyl)-1-methyl-1,2,3,4-tetrahydroisoquinoline-2-carbonyl)-3-(1-methylcyclobutyl)acrylonitrile]	< 1.25	> 75		
COc1cc(-c2cn(C)c(=O)c(C)c2C)cc(OC)c1CN1CCC(COc2cccc3c2CCN(C(=O)/C(C#N)=C/c2cccc(Br)n2)C3C)CC1 (mixture of isomers) [Compound B95, (E/Z)-3-(6-bromopyridin-2-yl)-2-(5-((1-(2,6-dimethoxy-4-(1,4,5-trimethyl-6-oxo-1,6-dihydropyridin-3-yl)benzyl)piperidin-4-yl)methoxy)-1-methyl-1,2,3,4-tetrahydroisoquinoline-2-carbonyl)acrylonitrile]	< 1.25	70 to 75		
COc1cc(-c2cn(C)c(=O)c(C)c2C)cc(OC)c1CN1CCN(Cc2cccc3c2CCN(C(=O)/C(C#N)=C/C2(CF)CC2)C3C)C2(CC2)C1 (mixture of isomers) [Compound B144, (E/Z)-2-(5-((7-(2,6-dimethoxy-4-(1,4,5-trimethyl-6-oxo-1,6-dihydropyridin-3-yl)benzyl)-4,7-diazaspiro[2.5]octan-4-yl)methyl)-1-methyl-1,2,3,4-tetrahydroisoquinoline-2-carbonyl)-3-(1-(fluoromethyl)cyclopropyl)acrylonitrile]	< 1.25	> 75		
COc1cc(-c2cn(C)c(=O)c(C)c2C)cc(OC)c1CN1C[C@@H](C)N(C(=O)/C(C#N)=C/C(C)(C)C)C[C@@H]1C (mixture of isomers) [Compound B190, (E/Z)-2-((2R,5S)-4-(2,6-dimethoxy-4-(1,4,5-trimethyl-6-oxo-1,6-dihydropyridin-3-yl)benzyl)-2,6-dimethylpiperazine-1-carbonyl)-4,4-dimethylpent-2-enenitrile]	25 to 1000	40 to 70		
COc1cc(-c2cn(C)c(=O)c(C)c2C)cc(OC)c1CN1CC[C@H](Oc2cccc3c2CCN(C(=O)/C(C#N)=C/C(C)(C)C)C3C)C1 (mixture of isomers) [Compound B133, (E/Z)-2-(5-(((R)-1-(2,6-dimethoxy-4-(1,4,5-trimethyl-6-oxo-1,6-dihydropyridin-3-yl)benzyl)pyrrolidin-3-yl)oxy)-1-methyl-1,2,3,4-tetrahydroisoquinoline-2-carbonyl)-4,4-dimethylpent-2-enenitrile]	10 to 25	40 to 70		
COc1cc(-c2cn(C)c(=O)c(C)c2C)cc(OC)c1CN1CCN(Cc2cccc3c2CCN(C(=O)/C(C#N)=C/c2cccc(Br)n2)C3C)C(C)(C)C1 (mixture of isomers) [Compound B109, (E/Z)-3-(6-bromopyridin-2-yl)-2-(5-((4-(2,6-dimethoxy-4-(1,4,5-trimethyl-6-oxo-1,6-dihydropyridin-3-yl)benzyl)-2,2-dimethylpiperazin-1-yl)methyl)-1-methyl-1,2,3,4-tetrahydroisoquinoline-2-carbonyl)acrylonitrile]	1.25 to 10	> 75		
COc1cc(-c2cn(C)c(=O)c(C)c2C)cc(OC)c1CN1CCN(C(=O)[C@H]2CN(C(=O)/C(C#N)=C/C(C)(C)C)C[C@@H]2C)CC1 [Compound B214]			50 to 70	> 200
COc1cc(-c2cn(C)c(=O)c(C)c2C)cc(OC)c1CN1CCC(COc2cccc3c2CCN(C(=O)/C(C#N)=C/C(C)(C)C)C3C)CC1 (mixture of isomers) [Compound B86, (E/Z)-2-(5-((1-(2,6-dimethoxy-4-(1,4,5-trimethyl-6-oxo-1,6-dihydropyridin-3-yl)benzyl)piperidin-4-yl)methoxy)-1-methyl-1,2,3,4-tetrahydroisoquinoline-2-carbonyl)-4,4-dimethylpent-2-enenitrile]	10 to 25	40 to 70		
COc1cc(-c2cn(C)c(=O)c(C)c2C)cc(OC)c1CN1CCN(Cc2cccc3c2CCN(C(=O)/C(C#N)=C/C(C)(C)CF)C3C)C2(CC2)C1 (single isomer, unassigned) [Compound B195, (E/Z)-2-(5-((7-(2,6-dimethoxy-4-(1,4,5-trimethyl-6-oxo-1,6-dihydropyridin-3-yl)benzyl)-4,7-diazaspiro[2.5]octan-4-yl)methyl)-1-methyl-1,2,3,4-tetrahydroisoquinoline-2-carbonyl)-5-fluoro-4,4-dimethylpent-2-enenitrile]	< 1.25	> 75		

— patent US20260092061A1, “COMPOUNDS FOR TARGETED PROTEIN DEGRADATION” (Amphista Therapeutics Limited, priority 2022, published 2026)
